This note sets out measurements from patent US9248111B2, “Therapeutic approaches for treating parkinson's disease” (PHARNEXT, priority 2011, dated 2016).

“Also recorded” adds a separate entry of the source.

Assay [1] concerns dopaminergic neuron cell bodies of subtantia nigra pars compacta. The experiment in a line: Quantification of TH positive neurons in substantia nigra after 6-OHDA lesion. The class given is in vivo, rat. To be noted: FIG. 16A: BCL-ACP 3.75 and 0.25 mg/kg bid; L-DOPA 8 mg/kg with benserazide 12.5 mg/kg; vs non-treated 6-OHDA rats. As to the method: (§1) Wistar rats (5 weeks) were used after an acclimatization period of at least 5 days. Surgery was performed under ketamine (50 mg/kg) and xylazine (10 mg/kg). Animals received an unilateral injection of 12 μg of 6-OHDA (sigma Aldrich) dissolved in 6 μl of 0.9% sterile NaCl containing 0.1% ascorbic acid (to protect 6-OHDA from oxidation), at the flow rate of 1 μl/min, in the left substantia nigra pars compacta. The stereotaxic coordinates of the injection site will be: anteroposterior+2.2 mm, lateral 2.0 mm, dorsoventral+3 mm with the incisor bar at +5.0 mm above the interaural plane, according to the rat stereotaxic atlas by De Groot (1959).
(§2) The first administration of treatment or vehicle has been performed the day before the stereotaxic injection of 6-OHDA (for the lesion groups) or vehicle and all along the 15 days preceding the behavioral tests. […] During the study and for each animal, the volume of per os administrations was determined on the basis of the mean body weight of the animals of the corresponding group. Body weights will be determined twice a week and the volume of administration will thus be adjusted consequently. […]
TH positive neurons were counted in a set of the three sections centered on the track of the 6-OHDA injection needle in the SN, covering almost all the SN. […] Cell counted is done using a microscope connected to a computer image analysis system by a CDD camera.

Assay [2] relates to dopaminergic neuronal terminals in the left striatum. Nature of the assay: [3H]-mazindol labelling of dopaminergic terminals in striatum after 6-OHDA lesion. The class given is in vivo, rat. To be noted: FIG. 16B: BCL-ACP 3.75 and 0.25 mg/kg bid; L-DOPA 8 mg/kg with benserazide 12.5 mg/kg; vs non-treated 6-OHDA rats. As to the method:
as §1, §2
The loss of DA terminals in the striatum was assessed as an index of the extent of the dopaminergic denervation by analysis of [^3H]-mazindol binding to dopamine uptake sites. […]

In the case of `N[C@@H](Cc1ccc(O)c(O)c1)C(=O)O` [L-DOPA, levodopa], in assay [1], the “number of dopaminergic neurons in the left (intoxicated) part of SN” value is given as “failed to inhibit; also recorded: not observed”. The “density of dopaminergic neuronal terminals in the left striatum (OD of [3H]-mazindol labelling)” value in assay [2] is listed as “failed to inhibit; also recorded: not observed”.
